Measurements: US8575170B2, “Flurbiprofen analogs and methods of use in treating cancer” (The Regents of the Unversity of Colorado, a body corporate, priority 2010, dated 2013)
Where two headings read alike, the source gives them in different places.

Tests used:
H322C1 = assay: MTT cell viability, H322C1; assay type: cell-based; conditions: 96 h; Adenocarcinoma lung cell line H322C1; 4 days incubation
Protocol: (§1) The ability of the flurbiprofen analog compounds of the invention to inhibit cancer cell growth and survival (viability) in a variety of cancer lines was examined in a standard MTT assay for cell viability, as detailed in Example 2.
(§2) The studies reported in Tables 1-3 above were carried out by incubating the cells in the test compound for four days, under standard cell-culture conditions, and measuring cell survival on day 5 (see Example 2).
(§3) Cell growth and survival following treatment with N—[(S)-2-Fluoro-α-methyl-4-biphenylacetyl]-[L-(4-phenylphenyl)alanine]-N-(2,2,6,6-tetramethyl-4-piperidinyl)amide (GCBH-110=B1031; (S)-Fmba-L-Bip-Atmp) were measured by a rapid colorimetric assay based on the tetrazolium salt MTT (3-(4,5-dimethylthiazol-2-yl)-2,5-diphenyl tetrazolium bromide) (Mosmann, J. Immunol. Methods 65: 55-63, 1983, with minor modifications).
(§4) Briefly, approximately 1,000-5,000 cancer cells from 15 different cancer cells lines were plated in 100 μL of growth medium in 96-well flat-bottomed microtiter plates. Cells were incubated overnight to allow recovery. Compounds to be tested were added to the cells in triplicate in a range of concentrations and the cells were incubated at 37° C., 5% CO2, with 100% humidity. Control cells were treated in the same way without antagonists. […] Absorbance was immediately determined using a scanning multiwell plate reader.

H3225 = assay: MTT cell viability, H3225; assay type: cell-based; conditions: 96 h; Adenocarcinoma lung cell line H3225; 4 days incubation
Protocol: as §1, §2, §3, §4

H1435a = assay: MTT cell viability, H1435a; assay type: cell-based; conditions: 96 h; Adenocarcinoma lung cell line H1435a; 4 days incubation
Protocol: as §1, §2, §3, §4

H1264 = assay: MTT cell viability, H1264; assay type: cell-based; conditions: 96 h; Adenosquamous lung cell line H1264; 4 days incubation
Protocol: as §1, §2, §3, §4

H460 = assay: MTT cell viability, H460; assay type: cell-based; conditions: Homo sapiens, NCI-H460, 96 h; Large Cell lung cell line H460; 4 days incubation
Protocol: as §1, §2, §3, §4

H1334 = assay: MTT cell viability, H1334; assay type: cell-based; conditions: 96 h; Large Cell lung cell line H1334; 4 days incubation
Protocol: as §1, §2, §3, §4

H157 = assay: MTT cell viability, H157; assay type: cell-based; conditions: Homo sapiens, NCI-H157, 96 h; Squamous lung cell line H157; 4 days incubation
Protocol: as §1, §2, §3, §4

S84 = assay: MTT cell viability, S84; assay type: cell-based; conditions: Head and neck cancer cell line S84
Protocol: as §1
(§5) A similar study was conducted on 14 […] cancer cell lines, identified in Table 2.
as §3
(§6) Briefly, approximately 1,000-5,000 cancer cells from 15 different cancer cells lines were plated in 100 μL of growth medium in 96-well flat-bottomed microtiter plates. Cells were incubated overnight to allow recovery. Compounds to be tested were added to the cells in triplicate in a range of concentrations and the cells were incubated at 37° C., 5% CO2, with 100% humidity. Control cells were treated in the same way without antagonists. […] Plates were incubated for 4 days, allowing sufficient time for cell replication and compound-induced cell death to occur. […] Absorbance was immediately determined using a scanning multiwell plate reader. […]

HN31 = assay: MTT cell viability, HN31; assay type: cell-based; conditions: Head and neck cancer cell line HN31
Protocol: as §1, §5, §3, §6

UMSCC19 = assay: MTT cell viability, UMSCC19; assay type: cell-based; conditions: Head and neck cancer cell line UMSCC19
Protocol: as §1, §5, §3, §6

Panc-327 = assay: MTT cell viability, Panc-327; assay type: cell-based; conditions: Pancreatic cancer cell, 96 h; Pancreatic cancer cells Panc-327; 4 days incubation
Text: as §1
(§7) Similar results were obtained for the effect of the B1031 compound on the 14 pancreatic tumor cells lines shown in Table 3 below, where the dose dependent effect of the compound on survival of the pancreatic cancer cell lines is shown in FIG. 5.
as §2, §3
(§8) Briefly, approximately 1,000-5,000 cancer cells from 15 different cancer cells lines were plated in 100 μL of growth medium in 96-well flat-bottomed microtiter plates. Cells were incubated overnight to allow recovery. […] Absorbance was immediately determined using a scanning multiwell plate reader.

Panc-1005 = assay: MTT cell viability, Panc-1005; assay type: cell-based; conditions: Homo sapiens, Panc1005, 96 h; Pancreatic cancer cells Panc-1005; 4 days incubation
Text: as §1, §7, §2, §3, §8

MiaPaCa = assay: MTT cell viability, MiaPaCa; assay type: cell-based; conditions: Homo sapiens, MIA PaCa-2, 96 h; Pancreatic cancer cells MiaPaCa; 4 days incubation
Text: as §1, §7, §2, §3, §8

L35 = assay: MTT cell viability, L35; assay type: cell-based; conditions: Pancreatic cancer cell, 96 h; Pancreatic cancer cells L35; 4 days incubation
Text: as §1, §7, §2, §3, §8

Panc-1 = assay: MTT cell viability, Panc-1; assay type: cell-based; conditions: Homo sapiens, 96 h; Pancreatic cancer cells Panc-1; 4 days incubation
Text: as §1, §7, §2, §3, §8

Panc-813 = assay: MTT cell viability, Panc-813; assay type: cell-based; conditions: Pancreatic cancer cell, 96 h; Pancreatic cancer cells Panc-813; 4 days incubation
Text: as §1, §7, §2, §3, §8

[1] = test system: head and neck cancer cell lines; assay: MTT cell viability, panel of head and neck cancer cell lines; assay type: cell-based
Protocol: as §1, §5, §3
Briefly, approximately 1,000-5,000 cancer cells from 15 different cancer cells lines were plated in 100 μL of growth medium in 96-well flat-bottomed microtiter plates. Cells were incubated overnight to allow recovery. Compounds to be tested were added to the cells in triplicate in a range of concentrations and the cells were incubated at 37° C., 5% CO2, with 100% humidity. Control cells were treated in the same way without antagonists. […] Plates were incubated for 4 days, allowing sufficient time for cell replication and compound-induced cell death to occur. On day 5, 25 μL of a 2 mg/mL solution of MTT (Sigma) dissolved in RMPI-1640 was added to each well. The plate was incubated for 4 h at 37° C. The supernatant liquid was removed and the blue formazan complex was dissolved by adding 100 μL of 0.02 N HCl in 75% isopropanol to all wells. Absorbance was immediately determined using a scanning multiwell plate reader.
Similarly, cell growth and survival following treatment with GCBH-110=B1031 was tested using the same MTT assay in 6 head and neck cancer cell lines. GCBH-110=B1031 caused 50% cell death at concentrations between about 0.3 μM and about 2 μM under these conditions (FIG. 3). […] GCBH-110=B1031 caused 50% cell death at concentrations between about 0.2 μM and about 0.8 μM under these conditions.

[2] = test system: BTIC EF12 brain tumor initiating stem cells; assay: Inhibition of BTIC EF12 brain tumor initiating stem cells; assay type: cell-based; conditions: at 10 μM, FIG. 6B
Protocol: FIGS. 6A and 6B show the loss in cell viability in HT-29 colon cancer cells, in response to increasing concentrations of GH 502 (GCBH 118) (FIG. 6A), and the effect of various treatments, including increasing concentration of GH501 (GCBH 110) on U251 malignant glioma cells and BTIC EF12 brain tumor initiating stem cells (FIG. 6B).
The study shown in FIG. 6A examined the effect of GCBH-118 (GH502) on an HT-29 colon cancer cell, showing an IC50 value of about 1 μM. […] The graph indicates an IC50 value for the B1031 compound against the U251 brain cancer cell line of between 2 and 10 μM.

[3] = test system: MiaPaCa pancreatic carcinoma solid tumor xenograft; assay: MiaPaCa pancreatic carcinoma xenograft in nude mice; assay type: in vivo, athymic nude mice; conditions: 5 mg/kg/every day intraperitoneal, beginning on the eleventh day following implantation, FIG. 12
Protocol: Similar results were obtained when the treatment method was applied to animals having pancreatic carcinoma implants, as shown in FIG. 12.
In a second study, athymic nude mice were implanted subcutaneously with suspensions of approximately 2 million MiaPaCa pancreatic carcinoma cells, in Matrigel suspension. […] The compound was initially dissolved in dimethyl sulfoxide (DMSO) and diluted with medium. Tumor size was measured with a caliper three times per week, and tumor volume calculated as above. At autopsy, tumors were removed and weighed.

## C[C@H](C(=O)N[C@@H](Cc1ccc(-c2ccccc2)cc1)C(=O)NC1CC(C)(C)NC(C)(C)C1)c1ccc(-c2ccccc2)c(F)c1 [GCBH-110, N—[(S)-2-Fluoro-α-methyl-4-biphenylacetyl]-[L-(4-phenylphenyl)alanine]-N-(2,2,6,6-tetramethyl-4-piperidinyl)amide]
H322C1
  IC50: 130 nM
H3225
  IC50: 1100 nM
H1435a
  IC50: 110 nM
H1264
  IC50: 630 nM
H460
  IC50: 480 nM
H1334
  IC50: 400 nM
H157
  IC50: 210 nM
S84
  IC50: 230 nM
HN31
  IC50: 540 nM
UMSCC19
  IC50: 2000 nM
Panc-327
  IC50: 670 nM
Panc-1005
  IC50: 700 nM
MiaPaCa
  IC50: 740 nM
L35
  IC50: 800 nM
Panc-1
  IC50: 810 nM
Panc-813
  IC50: 3.1 µM
[1]; 6 head and neck cancer cell lines, FIG. 3, read-out: concentrations causing 50% cell death
  IC50: 300 to 2000 nM
[1]; another panel of head and neck cancer cell lines, longer treatment exposure, FIG. 4, read-out: concentrations causing 50% cell death
  IC50: 200 to 800 nM
[1]; majority of the head and neck cell lines, read-out: IC50 value, majority of the cell lines
  IC50: < 500 nM
[1]; span over 14 head and neck cancer cell lines, Table 2, FIGS. 3 and 4, read-out: IC50 values
  IC50: 200 to 2000 nM
[2]
  compound inhibition of the BTIC EF12 cells: inhibition
[3]
  inhibition of MiaPaCa pancreatic carcinoma tumor growth: 66%
